The record followed here is patent US20080076740A1, “Antiviral compounds” (GILEAD SCIENCES, INC., priority 2005, published 2008).

Molecules are shown by their SMILES.

Test system in the first series: not listed separately
In words: Hepatocyte stability, human. The note with it: hepatocytes.
`CCOC(=O)[C@H](C)OP(=O)(CCN1CCN(C(=O)Oc2c3c(c(O)c4ncccc24)C(=O)N(Cc2ccc(F)cc2)C3)CC1)Oc1ccccc1` (stereo partly drawn) [Compound 2005]: the half-life is 1.65 h.
`CCOC(=O)[C@H](C)NP(=O)(CCNC(=O)c1c2c(c(O)c3ncccc13)C(=O)N(Cc1ccc(F)cc1)C2)Oc1ccccc1` (stereo partly drawn) [Compound 2006] displayed a half-life of 1.63 h.
The molecule `CCOC(=O)[C@H](C)NP(=O)(CCNC(=O)c1c2c(c(O)c3ncccc13)C(=O)N(Cc1ccc(F)cc1)C2)N[C@@H](C)C(=O)OCC` [Compound 2007] gave a half-life of 2.65 h.
On the same count and under the same terms, the figure for `CCOC(=O)C(C)NP(=O)(CCN(C)C(=O)c1c2c(c(O)c3ncccc13)C(=O)N(Cc1ccc(F)cc1)C2)Oc1ccccc1` (stereo not drawn) [Compound 2008] is 1.95 h; for `CCOC(=O)[C@H](C)OP(=O)(CCN1CCN(C(=O)c2c3c(c(O)c4ncccc24)C(=O)N(Cc2ccc(F)cc2)C3)CC1)Oc1ccccc1` (stereo partly drawn) [Compound 2011] it is 1.4 h.
On the same count and under the same terms, the figure for `CCOC(=O)[C@H](C)NP(=O)(CCCN(C)C(=O)c1c2c(c(O)c3ncccc13)C(=O)N(Cc1ccc(F)cc1)C2)Oc1ccccc1` (stereo partly drawn) [Compound 2012] is 2.57 h; for `CCOC(=O)[C@H](C)NP(=O)(CO[C@H](C)CNC(=O)c1c2c(c(O)c3ncccc13)C(=O)N(Cc1ccc(F)cc1)C2)Oc1ccccc1` (stereo partly drawn) [Compound 2013] it is 1.33 h.

Test system in a further series: not listed separately
The series is described as follows: Pharmacokinetics in rat. Type of series: in vivo.
Conditions: not given
With `O=C(NCc1ccccn1)c1c2c(c(O)c3ncccc13)C(=O)N(Cc1ccc(F)cc1)C2` [Compound 2001], the “F Rat” value is 2% and the “Vdb Rat” value is recorded as 8.2 L/kg.
In the case of `O=C(NCc1ccc(F)cc1)c1nc(N2CCCCS2(=O)=O)c2cccnc2c1O` [Compound L-870810, reference compound], the “F Rat” value is 42% and the “Vdb Rat” value was found to be 0.72 L/kg.

The same series, now with this note: in vivo, read-out: Cl Rat (converted).
As to `O=C(NCc1ccccn1)c1c2c(c(O)c3ncccc13)C(=O)N(Cc1ccc(F)cc1)C2` [Compound 2001], the clearance is 183 mL/min/kg.
On the same count and under the same terms, then `O=C(NCc1ccc(F)cc1)c1nc(N2CCCCS2(=O)=O)c2cccnc2c1O` [Compound L-870810, reference compound], with 1.5 mL/min/kg.

Test system in the next series: not listed separately
The series is described as follows: In vitro PBMC loading rate. The series is classed as in vitro ADME. The note with it: human. The text has this: In one embodiment, the invention is provides compounds capable of accumulating in human PBMC (peripheral blood mononuclear cells). PBMC refer to blood cells having round lymphocytes and monocytes. Physiologically, PBMC are critical components of the mechanism against infection. PBMC may be isolated from heparinized whole blood of normal healthy donors or buffy coats, by standard density gradient centrifugation and harvested from the interface, washed (e.g. phosphate-buffered saline) and stored in freezing medium. PBMC may be cultured in multi-well plates. At various times of culture, supernatant may be either removed for assessment, or cells may be harvested and analyzed (Smith R. etal (2003) Blood 102(7):2532-2540). The compounds of this embodiment may further comprise a phosphonate or phosphonate prodrug. More typically, the phosphonate or phosphonate prodrug can have the structure A^3 as described herein.
In the case of `CCOC(=O)[C@H](C)OP(=O)(CCN1CCN(C(=O)Oc2c3c(c(O)c4ncccc24)C(=O)N(Cc2ccc(F)cc2)C3)CC1)Oc1ccccc1` (stereo partly drawn) [Compound 2005], the “In vitro PBMC Loading Rate” value was determined as 5291 nM/h.
Same read-out and setting: then `CCOC(=O)[C@H](C)NP(=O)(CCNC(=O)c1c2c(c(O)c3ncccc13)C(=O)N(Cc1ccc(F)cc1)C2)Oc1ccccc1` (stereo partly drawn) [Compound 2006], with 7830 nM/h.
On the same count and under the same terms, the figure for `CCOC(=O)C(C)NP(=O)(CCN(C)C(=O)c1c2c(c(O)c3ncccc13)C(=O)N(Cc1ccc(F)cc1)C2)Oc1ccccc1` (stereo not drawn) [Compound 2008] is 19551 nM/h; for `CCOC(=O)[C@H](C)OP(=O)(CCN1CCN(C(=O)c2c3c(c(O)c4ncccc24)C(=O)N(Cc2ccc(F)cc2)C3)CC1)Oc1ccccc1` (stereo partly drawn) [Compound 2011] it is 4810 nM/h.
Take `CCOC(=O)[C@H](C)NP(=O)(CCCN(C)C(=O)c1c2c(c(O)c3ncccc13)C(=O)N(Cc1ccc(F)cc1)C2)Oc1ccccc1` (stereo partly drawn) [Compound 2012]: the “In vitro PBMC Loading Rate” value is on record as 4831 nM/h.
On the same count and under the same terms, the figure for `CCOC(=O)[C@H](C)NP(=O)(CO[C@H](C)CNC(=O)c1c2c(c(O)c3ncccc13)C(=O)N(Cc1ccc(F)cc1)C2)Oc1ccccc1` (stereo partly drawn) [Compound 2013] is 5774 nM/h.

Test system in another series: not listed separately
The series is described as follows: Hepatocyte stability, dog. As to conditions: hepatocytes.
Consider `CCOC(=O)[C@H](C)OP(=O)(CCN1CCN(C(=O)Oc2c3c(c(O)c4ncccc24)C(=O)N(Cc2ccc(F)cc2)C3)CC1)Oc1ccccc1` (stereo partly drawn) [Compound 2005], for which the half-life came out at 1.07 h.
Still for that read-out and setting: then `CCOC(=O)[C@H](C)NP(=O)(CCNC(=O)c1c2c(c(O)c3ncccc13)C(=O)N(Cc1ccc(F)cc1)C2)Oc1ccccc1` (stereo partly drawn) [Compound 2006], with 1.73 h.
Regarding `CCOC(=O)[C@H](C)NP(=O)(CCNC(=O)c1c2c(c(O)c3ncccc13)C(=O)N(Cc1ccc(F)cc1)C2)N[C@@H](C)C(=O)OCC` [Compound 2007], the half-life is 3.23 h.
The same measure, in the same setting: the figure for `CCOC(=O)C(C)NP(=O)(CCN(C)C(=O)c1c2c(c(O)c3ncccc13)C(=O)N(Cc1ccc(F)cc1)C2)Oc1ccccc1` (stereo not drawn) [Compound 2008] is 0.733 h; for `CCOC(=O)[C@H](C)OP(=O)(CCN1CCN(C(=O)c2c3c(c(O)c4ncccc24)C(=O)N(Cc2ccc(F)cc2)C3)CC1)Oc1ccccc1` (stereo partly drawn) [Compound 2011] it is 0.733 h.
On the same count and under the same terms, then `CCOC(=O)[C@H](C)NP(=O)(CCCN(C)C(=O)c1c2c(c(O)c3ncccc13)C(=O)N(Cc1ccc(F)cc1)C2)Oc1ccccc1` (stereo partly drawn) [Compound 2012], with 0.767 h; and `CCOC(=O)[C@H](C)NP(=O)(CO[C@H](C)CNC(=O)c1c2c(c(O)c3ncccc13)C(=O)N(Cc1ccc(F)cc1)C2)Oc1ccccc1` (stereo partly drawn) [Compound 2013], with 0.883 h.

Test system in the next series: not listed separately
The series is described as follows: Cytotoxicity in MT4 cells. As to conditions: human.
`CCOC(=O)[C@H](C)OP(=O)(CCN1CCN(C(=O)Oc2c3c(c(O)c4ncccc24)C(=O)N(Cc2ccc(F)cc2)C3)CC1)Oc1ccccc1` (stereo partly drawn) [Compound 2005]: the CC50 is less than 5000 nM.

The next series deals with HIV. The series is described as follows: Anti-HIV activity in MT4 cells. The series is classed as cell-based. As to conditions: Human immunodeficiency virus 1.
`CCOC(=O)[C@H](C)OP(=O)(CCN1CCN(C(=O)Oc2c3c(c(O)c4ncccc24)C(=O)N(Cc2ccc(F)cc2)C3)CC1)Oc1ccccc1` (stereo partly drawn) [Compound 2005] yielded an EC50 of less than 20 nM.

The target in a further series is Strand Transfer (Human immunodeficiency virus type 1 group M subtype B, UniProt P04585). The series is described as follows: Integrase strand transfer inhibition. Type of series: biochemical, HIV.
Conditions: not given
Regarding `CCOC(=O)[C@H](C)OP(=O)(CCN1CCN(C(=O)Oc2c3c(c(O)c4ncccc24)C(=O)N(Cc2ccc(F)cc2)C3)CC1)Oc1ccccc1` (stereo partly drawn) [Compound 2005], the IC50 was less than 1200 nM.

Test system in a further series: not listed separately
In words: Pharmacokinetics in dog. Type of series: in vivo.
Conditions: not given
With `O=C(NCc1ccccn1)c1c2c(c(O)c3ncccc13)C(=O)N(Cc1ccc(F)cc1)C2` [Compound 2001], the “F Dog” value stood at 28% and the “Vdb Dog” value was 0.8 L/kg.
For the molecule `O=C(NCc1ccc(F)cc1)c1nc(N2CCCCS2(=O)=O)c2cccnc2c1O` [Compound L-870810, reference compound], the “F Dog” value was determined as 50% and the “Vdb Dog” value stood at 0.5 L/kg.

The series is the same for the next values; noted with them: in vivo, read-out: Cl Dog (converted).
As to `O=C(NCc1ccccn1)c1c2c(c(O)c3ncccc13)C(=O)N(Cc1ccc(F)cc1)C2` [Compound 2001], the clearance is 1.17 mL/min/kg.
Still for that read-out and setting: the figure for `O=C(NCc1ccc(F)cc1)c1nc(N2CCCCS2(=O)=O)c2cccnc2c1O` [Compound L-870810, reference compound] is 1.17 mL/min/kg.

Test system in the next series: not listed separately
In words: Phosphonate prodrugs in vivo summary (pharmacokinetics). As to conditions: species not given.
As for `CCOC(=O)[C@H](C)OP(=O)(CCN1CCN(C(=O)Oc2c3c(c(O)c4ncccc24)C(=O)N(Cc2ccc(F)cc2)C3)CC1)Oc1ccccc1` (stereo partly drawn) [Compound 2005], the “(head line blank)” value was 60 mL/min/kg, the F was 3% and the Vdβ came out at 10.8 L/kg.
For `CCOC(=O)[C@H](C)NP(=O)(CCNC(=O)c1c2c(c(O)c3ncccc13)C(=O)N(Cc1ccc(F)cc1)C2)Oc1ccccc1` (stereo partly drawn) [Compound 2006] the same measures were 15 mL/min/kg, “BLQ” and 0.7 L/kh.
On to `CCOC(=O)[C@H](C)NP(=O)(CCNC(=O)c1c2c(c(O)c3ncccc13)C(=O)N(Cc1ccc(F)cc1)C2)N[C@@H](C)C(=O)OCC` [Compound 2007], for which the “(head line blank)” value worked out at 58.3 mL/min/kg and the Vdβ came out at 4 L/kg.
On to `CCOC(=O)C(C)NP(=O)(CCN(C)C(=O)c1c2c(c(O)c3ncccc13)C(=O)N(Cc1ccc(F)cc1)C2)Oc1ccccc1` (stereo not drawn) [Compound 2008], for which the “(head line blank)” value was found to be 15 mL/min/kg, the F was 0.5% and the Vdβ amounted to 1.8 L/kg.
For `CCOC(=O)[C@H](C)OP(=O)(CCN1CCN(C(=O)c2c3c(c(O)c4ncccc24)C(=O)N(Cc2ccc(F)cc2)C3)CC1)Oc1ccccc1` (stereo partly drawn) [Compound 2011] the same measures were 76.7 mL/min/kg, 0.3% and 9.1 L/kg.
`CCOC(=O)[C@H](C)NP(=O)(CCCN(C)C(=O)c1c2c(c(O)c3ncccc13)C(=O)N(Cc1ccc(F)cc1)C2)Oc1ccccc1` (stereo partly drawn) [Compound 2012]: the “(head line blank)” value is 12 mL/min/kg, the F came out at 0.2% and the Vdβ is listed as 0.7 L/kh.
Consider `CCOC(=O)[C@H](C)NP(=O)(CO[C@H](C)CNC(=O)c1c2c(c(O)c3ncccc13)C(=O)N(Cc1ccc(F)cc1)C2)Oc1ccccc1` (stereo partly drawn) [Compound 2013], for which the “(head line blank)” value was found to be 15 mL/min/kg and the Vdβ is 4 L/kg.

Test system in a further series: not listed separately
The series is described as follows: Caco-2 permeability. As to conditions: Caco-2. The series is classed as in vitro ADME. For orientation: Passage across Caco-2 layers is used to estimate intestinal permeability.
For `CCOC(=O)[C@H](C)NP(=O)(CCNC(=O)c1c2c(c(O)c3ncccc13)C(=O)N(Cc1ccc(F)cc1)C2)N[C@@H](C)C(=O)OCC` [Compound 2007], the Papp entry is listed as “BQL”.
The same measure, in the same setting: then `CCOC(=O)[C@H](C)NP(=O)(CCCN(C)C(=O)c1c2c(c(O)c3ncccc13)C(=O)N(Cc1ccc(F)cc1)C2)Oc1ccccc1` (stereo partly drawn) [Compound 2012], with “BQL”; and `CCOC(=O)[C@H](C)NP(=O)(CO[C@H](C)CNC(=O)c1c2c(c(O)c3ncccc13)C(=O)N(Cc1ccc(F)cc1)C2)Oc1ccccc1` (stereo partly drawn) [Compound 2013], with “BQL”.

The series is the same for the next values; noted with them: human, Caco-2; read-out: Papp.
`CCOC(=O)C(C)NP(=O)(CCN(C)C(=O)c1c2c(c(O)c3ncccc13)C(=O)N(Cc1ccc(F)cc1)C2)Oc1ccccc1` (stereo not drawn) [Compound 2008]: the Papp was found to be 0.1 ×10⁻⁶ cm/s.

Staying with this series, now noted: human; Caco-2 studies; read-out: Papp.
As for `O=C(NCc1ccccn1)c1c2c(c(O)c3ncccc13)C(=O)N(Cc1ccc(F)cc1)C2` [Compound 2001], the apparent permeability coefficient (Papp) is 5 ×10⁻⁶ cm/s.
Still for that read-out and setting: the figure for `O=C(NCc1ccc(F)cc1)c1nc(N2CCCCS2(=O)=O)c2cccnc2c1O` [Compound L-870810, reference compound] is 40 ×10⁻⁶ cm/s.

Broadly, the half-life is the time in which the quantity being followed falls by half. Low readings indicate fast loss, high ones slow loss. For orientation: CC50 means the concentration giving 50% cytotoxicity. Low readings indicate greater toxicity to the cells, high ones lower toxicity to the cells. As a reminder, the EC50 is the concentration giving half of the maximal effect. A lower EC50 goes with higher potency in that assay. The IC50 is the point on the concentration scale where inhibition reaches its midpoint. The Papp is the rate of passage across a membrane or cell layer, normalised by area and donor concentration.
